Test results reported in PMC10329973 (Clinical pharmacology in drug development, 2023).

Assays:
pre-clinical models = conditions: cited from earlier work
[1] = Multiple ascending dose study NP10679-102, plasma pharmacokinetics; format: in vivo; conditions: human, iv; for Cmax / Tmax: MAD; for half-life: T 1/2, MAD
[2] = In vitro metabolic stability, hepatic microsomes; format: in vitro ADME, mice, rats, dogs, and humans; conditions: mouse, rat, dog, human, liver microsomes
[3] = 25 mg, 25 mg IV once daily, day 1
[4] = 25 mg, 25 mg IV once daily, day 2
[5] = 25 mg, 25 mg IV once daily, day 3
[6] = 25 mg, 25 mg IV once daily, day 4
[7] = 25 mg, 25 mg IV once daily, day 5
[8] = 50 mg, 50 mg IV once daily, day 1
[9] = 50 mg, 50 mg IV once daily, day 2
[10] = 50 mg, 50 mg IV once daily, day 3
[11] = 50 mg, 50 mg IV once daily, day 4
[12] = 50 mg, 50 mg IV once daily, day 5
[13] = 100 mg, 100 mg IV once daily, day 1
[14] = 100 mg, 100 mg IV once daily, day 2
[15] = 100 mg, 100 mg IV once daily, day 3
[16] = 100 mg, 100 mg IV once daily, day 4
[17] = 100 mg, 100 mg IV once daily, day 5

O=C1CCc2cc(OC[C@H](O)CN3CCN(c4ccc(C(F)(F)F)cc4)CC3)ccc2N1 [NP10679, (R)-6-(2-Hydroxy-3-(4-(4-(trifluoromethyl)phenyl)piperazin-1-yl)propoxy)-3,4-dihydroquinolin-2(1H)-one]
somnolence in pre-clinical models (pre-clinical models): leads to somnolence at doses above those necessary to achieve efficacy | AUC(0-t) ([1]; 25 mg, AUC 0–24, MAD, 25 mg IV once daily, day 1): 1470 ± 186 ng·h/mL | AUC(0-t) ([1]; 25 mg, AUC 0–24, MAD, 25 mg IV once daily, day 2): 1920 ± 305 ng·h/mL | AUC(0-t) ([1]; 25 mg, AUC 0–24, MAD, 25 mg IV once daily, day 3): 2090 ± 303 ng·h/mL | AUC(0-t) ([1]; 25 mg, AUC 0–24, MAD, 25 mg IV once daily, day 4): 2170 ± 397 ng·h/mL | AUC(0-t) ([1]; 25 mg, AUC 0–24, MAD, 25 mg IV once daily, day 5): 2260 ± 478 ng·h/mL | AUC(0-t) ([1]; 25 mg, AUC 0–96, MAD, 25 mg IV once daily, day 5): 3880 ± 1140 ng·h/mL | Cmax [1, 3]: 208 ± 72 ng/mL | Cmax [1, 4]: 211 ± 57 ng/mL | Cmax [1, 5]: 207 ± 35 ng/mL | Cmax [1, 6]: 250 ± 34 ng/mL | Cmax [1, 7]: 213 ± 26 ng/mL | half-life [1, 3]: 15 ± 3 h | half-life [1, 4]: 17 ± 2 h | half-life [1, 5]: 16 ± 3 h | half-life [1, 6]: 19 ± 5 h | half-life [1, 7]: 36 ± 15 h | Tmax [1, 3]: 0.5 h | Tmax [1, 4]: 0.9 ± 0.8 h | Tmax [1, 5]: 0.8 ± 0.4 h | Tmax [1, 6]: 0.5 h | Tmax [1, 7]: 0.5 h | AUC(0-t) ([1]; 50 mg, AUC 0–24, MAD, 50 mg IV once daily, day 1): 2650 ± 283 ng·h/mL | AUC(0-t) ([1]; 50 mg, AUC 0–24, MAD, 50 mg IV once daily, day 2): 3300 ± 479 ng·h/mL | AUC(0-t) ([1]; 50 mg, AUC 0–24, MAD, 50 mg IV once daily, day 3): 3890 ± 424 ng·h/mL | AUC(0-t) ([1]; 50 mg, AUC 0–24, MAD, 50 mg IV once daily, day 4): 4110 ± 485 ng·h/mL | AUC(0-t) ([1]; 50 mg, AUC 0–24, MAD, 50 mg IV once daily, day 5): 4290 ± 500 ng·h/mL | AUC(0-t) ([1]; 50 mg, AUC 0–96, MAD, 50 mg IV once daily, day 5): 6960 ± 1170 ng·h/mL | Cmax [1, 8]: 376 ± 99 ng/mL | Cmax [1, 9]: 276 ± 60 ng/mL | Cmax [1, 10]: 335 ± 73 ng/mL | Cmax [1, 11]: 389 ± 116 ng/mL | Cmax [1, 12]: 394 ± 72 ng/mL | half-life [1, 8]: 18 ± 4 h | half-life [1, 9]: 18 ± 3 h | half-life [1, 10]: 26 ± 16 h | half-life [1, 11]: 16 ± 1 h | half-life [1, 12]: 21 ± 3 h | Tmax [1, 8]: 0.8 ± 0.8 h | Tmax [1, 9]: 1 ± 0.4 h | Tmax [1, 10]: 0.8 ± 0.5 h | Tmax [1, 11]: 0.8 ± 0.5 h | Tmax [1, 12]: 0.7 ± 0.4 h | AUC(0-t) ([1]; 100 mg, AUC 0–24, MAD, 100 mg IV once daily, day 1): 5630 ± 625 ng·h/mL | AUC(0-t) ([1]; 100 mg, AUC 0–24, MAD, 100 mg IV once daily, day 2): 7320 ± 279 ng·h/mL | AUC(0-t) ([1]; 100 mg, AUC 0–24, MAD, 100 mg IV once daily, day 3): 8710 ± 458 ng·h/mL | AUC(0-t) ([1]; 100 mg, AUC 0–24, MAD, 100 mg IV once daily, day 4): 9510 ± 1200 ng·h/mL | AUC(0-t) ([1]; 100 mg, AUC 0–24, MAD, 100 mg IV once daily, day 5): 8980 ± 376 ng·h/mL | AUC(0-t) ([1]; 100 mg, AUC 0–96, MAD, 100 mg IV once daily, day 5): 13900 ± 962 ng·h/mL | Cmax [1, 13]: 1240 ± 1150 ng/mL | Cmax [1, 14]: 570 ± 29 ng/mL | Cmax [1, 15]: 812 ± 190 ng/mL | Cmax [1, 16]: 873 ± 236 ng/mL | Cmax [1, 17]: 1080 ± 295 ng/mL | half-life [1, 13]: 22 ± 5 h | half-life [1, 14]: 22 ± 5 h | half-life [1, 15]: 22 ± 5 h | half-life [1, 16]: 34 ± 28 h | half-life [1, 17]: 13 ± 5 h | Tmax [1, 13]: 0.5 h | Tmax [1, 14]: 0.8 ± 0.3 h | Tmax [1, 15]: 0.5 h | Tmax [1, 16]: 0.6 ± 0.3 h | Tmax [1, 17]: 0.5 h | half-life [2]: > 2 h
